According to patent US10239844B2, “Disubstituted triazole analogs” (BioVentures, LLC, priority 2014, dated 2019):

What follows are compounds tested on HOP-92 (assay: NCI 60 panel five-dose growth inhibition, Non-Small Cell Lung Cancer). Details: HOP-92, Non-Small Cell Lung Cancer.
Assay type: cell-based, human

Structure (SMILES) | TGI [µM]
COc1cc(-c2n[nH]nc2-c2cc(OC)c(OC)c(OC)c2)cc(OC)c1OC [Example 3, 4,5-bis(3,4,5-trimethoxyphenyl)-2H-1,2,3-triazole] | 11.3
COc1cc(-c2n[nH]nc2-c2ccc3ccccc3n2)cc(OC)c1OC [Example 4, 2-(5-(3,4,5-trimethoxyphenyl)-2H-1,2,3-triazol-4-yl)quinoline] | 2.67

Same assay, conditions: Homo sapiens; HOP-92, Non-Small Cell Lung Cancer

Structure (SMILES) | GI50 [µM]
COc1cc(-c2n[nH]nc2-c2cc(OC)c(OC)c(OC)c2)cc(OC)c1OC [Example 3, 4,5-bis(3,4,5-trimethoxyphenyl)-2H-1,2,3-triazole] | 0.0989
COc1cc(-c2n[nH]nc2-c2ccc3ccccc3n2)cc(OC)c1OC [Example 4, 2-(5-(3,4,5-trimethoxyphenyl)-2H-1,2,3-triazol-4-yl)quinoline] | < 0.01

These compounds were tested on ACHN (assay: NCI 60 panel five-dose growth inhibition, Renal Cancer). Details: not given.
Assay type: cell-based, human

Structure (SMILES) | TGI [µM]
COc1cc(-c2n[nH]nc2-c2cc(OC)c(OC)c(OC)c2)cc(OC)c1OC [Example 3, 4,5-bis(3,4,5-trimethoxyphenyl)-2H-1,2,3-triazole] | >100
COc1cc(-c2n[nH]nc2-c2ccc3ccccc3n2)cc(OC)c1OC [Example 4, 2-(5-(3,4,5-trimethoxyphenyl)-2H-1,2,3-triazol-4-yl)quinoline] | >100

Same assay, conditions: Homo sapiens

Structure (SMILES) | GI50 [µM]
COc1cc(-c2n[nH]nc2-c2cc(OC)c(OC)c(OC)c2)cc(OC)c1OC [Example 3, 4,5-bis(3,4,5-trimethoxyphenyl)-2H-1,2,3-triazole] | 0.0813
COc1cc(-c2n[nH]nc2-c2ccc3ccccc3n2)cc(OC)c1OC [Example 4, 2-(5-(3,4,5-trimethoxyphenyl)-2H-1,2,3-triazol-4-yl)quinoline] | 0.145

The compounds below were run on MDA-MB-231/ATCC (assay: NCI 60 panel five-dose growth inhibition, Breast Cancer). Details: not given.
Assay type: cell-based, human

Structure (SMILES) | TGI [µM]
COc1cc(-c2n[nH]nc2-c2cc(OC)c(OC)c(OC)c2)cc(OC)c1OC [Example 3, 4,5-bis(3,4,5-trimethoxyphenyl)-2H-1,2,3-triazole] | >100
COc1cc(-c2n[nH]nc2-c2ccc3ccccc3n2)cc(OC)c1OC [Example 4, 2-(5-(3,4,5-trimethoxyphenyl)-2H-1,2,3-triazol-4-yl)quinoline] | >100

Same assay, conditions: Homo sapiens

Structure (SMILES) | GI50 [µM]
COc1cc(-c2n[nH]nc2-c2cc(OC)c(OC)c(OC)c2)cc(OC)c1OC [Example 3, 4,5-bis(3,4,5-trimethoxyphenyl)-2H-1,2,3-triazole] | 0.0947
COc1cc(-c2n[nH]nc2-c2ccc3ccccc3n2)cc(OC)c1OC [Example 4, 2-(5-(3,4,5-trimethoxyphenyl)-2H-1,2,3-triazol-4-yl)quinoline] | 0.046

These compounds were tested on SK-OV-3 (assay: NCI 60 panel five-dose growth inhibition, Ovarian Cancer). Details: Homo sapiens; SK-OV-3, Ovarian Cancer.
Assay type: cell-based, human

Structure (SMILES) | GI50 [µM]
COc1cc(-c2n[nH]nc2-c2cc(OC)c(OC)c(OC)c2)cc(OC)c1OC [Example 3, 4,5-bis(3,4,5-trimethoxyphenyl)-2H-1,2,3-triazole] | 0.075
COc1cc(-c2n[nH]nc2-c2ccc3ccccc3n2)cc(OC)c1OC [Example 4, 2-(5-(3,4,5-trimethoxyphenyl)-2H-1,2,3-triazol-4-yl)quinoline] | 0.0458

Same assay, conditions: SK-OV-3, Ovarian Cancer

Structure (SMILES) | TGI [µM]
COc1cc(-c2n[nH]nc2-c2cc(OC)c(OC)c(OC)c2)cc(OC)c1OC [Example 3, 4,5-bis(3,4,5-trimethoxyphenyl)-2H-1,2,3-triazole] | 97.7
COc1cc(-c2n[nH]nc2-c2ccc3ccccc3n2)cc(OC)c1OC [Example 4, 2-(5-(3,4,5-trimethoxyphenyl)-2H-1,2,3-triazol-4-yl)quinoline] | >100

What follows are compounds tested on NCI-H460 (assay: NCI 60 panel five-dose growth inhibition, Non-Small Cell Lung Cancer). Details: not given.
Assay type: cell-based, human

Structure (SMILES) | TGI [µM]
COc1cc(-c2n[nH]nc2-c2cc(OC)c(OC)c(OC)c2)cc(OC)c1OC [Example 3, 4,5-bis(3,4,5-trimethoxyphenyl)-2H-1,2,3-triazole] | >100
COc1cc(-c2n[nH]nc2-c2ccc3ccccc3n2)cc(OC)c1OC [Example 4, 2-(5-(3,4,5-trimethoxyphenyl)-2H-1,2,3-triazol-4-yl)quinoline] | >100

Same assay, conditions: Homo sapiens

Structure (SMILES) | GI50 [µM]
COc1cc(-c2n[nH]nc2-c2cc(OC)c(OC)c(OC)c2)cc(OC)c1OC [Example 3, 4,5-bis(3,4,5-trimethoxyphenyl)-2H-1,2,3-triazole] | 0.0381
COc1cc(-c2n[nH]nc2-c2ccc3ccccc3n2)cc(OC)c1OC [Example 4, 2-(5-(3,4,5-trimethoxyphenyl)-2H-1,2,3-triazol-4-yl)quinoline] | 0.0342

Each compound was assayed on IGROV1 (assay: NCI 60 panel five-dose growth inhibition, Ovarian Cancer). Details: not given.
Assay type: cell-based, human

Structure (SMILES) | TGI [µM]
COc1cc(-c2n[nH]nc2-c2cc(OC)c(OC)c(OC)c2)cc(OC)c1OC [Example 3, 4,5-bis(3,4,5-trimethoxyphenyl)-2H-1,2,3-triazole] | >100
COc1cc(-c2n[nH]nc2-c2ccc3ccccc3n2)cc(OC)c1OC [Example 4, 2-(5-(3,4,5-trimethoxyphenyl)-2H-1,2,3-triazol-4-yl)quinoline] | >100

Same assay, conditions: Homo sapiens, IGROV-1

Structure (SMILES) | GI50 [µM]
COc1cc(-c2n[nH]nc2-c2cc(OC)c(OC)c(OC)c2)cc(OC)c1OC [Example 3, 4,5-bis(3,4,5-trimethoxyphenyl)-2H-1,2,3-triazole] | 0.0648
COc1cc(-c2n[nH]nc2-c2ccc3ccccc3n2)cc(OC)c1OC [Example 4, 2-(5-(3,4,5-trimethoxyphenyl)-2H-1,2,3-triazol-4-yl)quinoline] | 0.0509

The compounds below were run on 5K-MEL-5 (assay: NCI 60 panel five-dose growth inhibition, Melanoma). Details: 5K-MEL-5, Melanoma.
Assay type: cell-based, human

Structure (SMILES) | TGI [µM]
COc1cc(-c2n[nH]nc2-c2cc(OC)c(OC)c(OC)c2)cc(OC)c1OC [Example 3, 4,5-bis(3,4,5-trimethoxyphenyl)-2H-1,2,3-triazole] | 0.35
COc1cc(-c2n[nH]nc2-c2ccc3ccccc3n2)cc(OC)c1OC [Example 4, 2-(5-(3,4,5-trimethoxyphenyl)-2H-1,2,3-triazol-4-yl)quinoline] | 0.32

Same assay, conditions: Homo sapiens; 5K-MEL-5, Melanoma

Structure (SMILES) | GI50 [µM]
COc1cc(-c2n[nH]nc2-c2cc(OC)c(OC)c(OC)c2)cc(OC)c1OC [Example 3, 4,5-bis(3,4,5-trimethoxyphenyl)-2H-1,2,3-triazole] | 0.0126
COc1cc(-c2n[nH]nc2-c2ccc3ccccc3n2)cc(OC)c1OC [Example 4, 2-(5-(3,4,5-trimethoxyphenyl)-2H-1,2,3-triazol-4-yl)quinoline] | 0.0267

What follows are compounds tested on MOLT-4 (assay: NCI 60 panel five-dose growth inhibition, Leukemia). Details: Homo sapiens; MOLT-4, Leukemia.
Assay type: cell-based, human

Structure (SMILES) | GI50 [µM]
COc1cc(-c2n[nH]nc2-c2cc(OC)c(OC)c(OC)c2)cc(OC)c1OC [Example 3, 4,5-bis(3,4,5-trimethoxyphenyl)-2H-1,2,3-triazole] | 0.0682
COc1cc(-c2n[nH]nc2-c2ccc3ccccc3n2)cc(OC)c1OC [Example 4, 2-(5-(3,4,5-trimethoxyphenyl)-2H-1,2,3-triazol-4-yl)quinoline] | 0.0482

Same assay, conditions: MOLT-4, Leukemia

Structure (SMILES) | TGI [µM]
COc1cc(-c2n[nH]nc2-c2cc(OC)c(OC)c(OC)c2)cc(OC)c1OC [Example 3, 4,5-bis(3,4,5-trimethoxyphenyl)-2H-1,2,3-triazole] | >100
COc1cc(-c2n[nH]nc2-c2ccc3ccccc3n2)cc(OC)c1OC [Example 4, 2-(5-(3,4,5-trimethoxyphenyl)-2H-1,2,3-triazol-4-yl)quinoline] | 20.0

The compounds below were run on HCC-2998 (assay: NCI 60 panel five-dose growth inhibition, Colon Cancer). Details: HCC-2998, Colon Cancer.
Assay type: cell-based, human

Structure (SMILES) | TGI [µM]
COc1cc(-c2n[nH]nc2-c2cc(OC)c(OC)c(OC)c2)cc(OC)c1OC [Example 3, 4,5-bis(3,4,5-trimethoxyphenyl)-2H-1,2,3-triazole] | >100
COc1cc(-c2n[nH]nc2-c2ccc3ccccc3n2)cc(OC)c1OC [Example 4, 2-(5-(3,4,5-trimethoxyphenyl)-2H-1,2,3-triazol-4-yl)quinoline] | 11.4

Same assay, conditions: Homo sapiens; HCC-2998, Colon Cancer

Structure (SMILES) | GI50 [µM]
COc1cc(-c2n[nH]nc2-c2cc(OC)c(OC)c(OC)c2)cc(OC)c1OC [Example 3, 4,5-bis(3,4,5-trimethoxyphenyl)-2H-1,2,3-triazole] | 0.23
COc1cc(-c2n[nH]nc2-c2ccc3ccccc3n2)cc(OC)c1OC [Example 4, 2-(5-(3,4,5-trimethoxyphenyl)-2H-1,2,3-triazol-4-yl)quinoline] | 0.0459

The compounds below were run on U251 (assay: NCI 60 panel five-dose growth inhibition, CNS Cancer). Details: not given.
Assay type: cell-based, human

Structure (SMILES) | TGI [µM]
COc1cc(-c2n[nH]nc2-c2cc(OC)c(OC)c(OC)c2)cc(OC)c1OC [Example 3, 4,5-bis(3,4,5-trimethoxyphenyl)-2H-1,2,3-triazole] | 46.9
COc1cc(-c2n[nH]nc2-c2ccc3ccccc3n2)cc(OC)c1OC [Example 4, 2-(5-(3,4,5-trimethoxyphenyl)-2H-1,2,3-triazol-4-yl)quinoline] | >100

Same assay, conditions: Homo sapiens, U-251

Structure (SMILES) | GI50 [µM]
COc1cc(-c2n[nH]nc2-c2cc(OC)c(OC)c(OC)c2)cc(OC)c1OC [Example 3, 4,5-bis(3,4,5-trimethoxyphenyl)-2H-1,2,3-triazole] | 0.0371
COc1cc(-c2n[nH]nc2-c2ccc3ccccc3n2)cc(OC)c1OC [Example 4, 2-(5-(3,4,5-trimethoxyphenyl)-2H-1,2,3-triazol-4-yl)quinoline] | 0.0379

The compounds below were run on HOP-62 (assay: NCI 60 panel five-dose growth inhibition, Non-Small Cell Lung Cancer). Details: HOP-62, Non-Small Cell Lung Cancer.
Assay type: cell-based, human

Structure (SMILES) | TGI [µM]
COc1cc(-c2n[nH]nc2-c2cc(OC)c(OC)c(OC)c2)cc(OC)c1OC [Example 3, 4,5-bis(3,4,5-trimethoxyphenyl)-2H-1,2,3-triazole] | >100
COc1cc(-c2n[nH]nc2-c2ccc3ccccc3n2)cc(OC)c1OC [Example 4, 2-(5-(3,4,5-trimethoxyphenyl)-2H-1,2,3-triazol-4-yl)quinoline] | >100

Same assay, conditions: Homo sapiens; HOP-62, Non-Small Cell Lung Cancer

Structure (SMILES) | GI50 [µM]
COc1cc(-c2n[nH]nc2-c2cc(OC)c(OC)c(OC)c2)cc(OC)c1OC [Example 3, 4,5-bis(3,4,5-trimethoxyphenyl)-2H-1,2,3-triazole] | 0.0467
COc1cc(-c2n[nH]nc2-c2ccc3ccccc3n2)cc(OC)c1OC [Example 4, 2-(5-(3,4,5-trimethoxyphenyl)-2H-1,2,3-triazol-4-yl)quinoline] | 0.025
